One assay deals with T1, calcium channel (Cavia porcellus, UniProt O35505).
T1 construct: The taenia coli excised from a male guinea pig; from tissue; host or cells: guinea pig taenia coli (excised smooth muscle strip)
Nature of the assay: Calcium channel blocking action (calcium-induced contraction of excised taenia coli). As to conditions: 0.5 h, test compound 10^-8 g/ml, 30 minutes incubation, guinea pig taenia coli, hydrochlorides (Example 34: fumarate). On the procedure:
The taenia coli excised from a male guinea pig weighing from 250 to 300 g was cut into a length of 6 to 7 mm and suspended in an organ bath filled with Tylord's solution (sodium chloride 97 mM, potassium chloride 40 mM, sodium hydrogen carbonate 11.9 mM, disodium hydrogen phosphate 0.4 mM, glucose 5.5 mM; pH 7.1). The bath solution contained no calcium ions and was aerated with a mixture of 95% oxygen and 5% carbon dioxide by volume. To this solution were added 10 and 30 mM solutions of calcium chloride at 30 minute intervals to obtain a final concentration of 0.4 mM. The tension which developed 1n the taenia coli was measured by an isometric transducer. The organ bath was then washed twice or more with Tylord's solution containing no calcium ions after which it was allowed to equilibrate for 30 minutes. After the muscle had stabilised, test compound dissolved in physiological saline was added to the bath to a final concentration of 10^-8 g/ml, and the bath was incubated for 30 minutes. 30 and 100 mM solutions of calcium chloride were again added to the bath, and the developed tension was measured. From the magnitude of the calcium-induced contraction before and after the test drug had been added the inhibitory rate was calculated using the following formula: [formula] where: Co=contraction induced by calcium ion before a test drug was added: and
Ct=contraction induced by calcium ion after the test drug had been added.
In addition to the compounds of the invention, we also carried out the same test with the following compounds of the prior art: (±)-diltiazem, […], (±)-8-chlorodiltiazem (8-Cl-diltiazem). (±)-8-methoxydiltiazem (8-MeO-diltiazem) and (±)-8-benzyloxydiltiazem (8-BzO-diltiazem).
In the Table, the compounds of the invention are identified by the number of the one of the foregoing Examples in which the compound was prepared. The prior art compounds are identified by the abbreviated generic names shown above in parentheses.
All of the compounds except for that of Example 34 were employed as the hydrochlorides; that of Example 34 was employed as the fumarate.

Assay [1] concerns SHR (spontaneously hypertensive rats). Kind of assay: Antihypertensive action in SHR. As to conditions: Dose 10 mg/kg, conscious male SHR, hydrochlorides, 24 hours; for change in vivo at 10 mg/kg: Rattus norvegicus, po, read-out: Maximum hypotension (%). The format is in vivo. The protocol:
Male SHR (spontaneously hypertensive rats), 23 to 30 weeks old, were anesthesized with sodium pentobarbital 50 mg/kg intraperitoneal administration), and a polyethylene cannula was inserted through the left femoral artery into the abdominal aorta. The other end of the cannula was led out of the body and fixed at the back of the neck. One week after the operation, when the animal had recovered from the stress of the surgery, the other end of the cannula was connected to a blood pressure measuring device, which was constructed according to the directions of Laffan et al. [Laffan, P.J., Peterson A., Hitch S,W. and Jeunelot C., Cardiovascular Res. 6. 319-324 (1972)], but with slight modifications. The blood pressure and heart rate of the conscious and […] SHR were measured. After the blood pressure and the heart rate had stabilised for more than one hour, the test drug was administered by […]. After administration of the test sample, the blood pressure and the heart rate were measured every 15 minutes over a period of 24 hours. The maximum decrease in blood pressure and the half-time of the blood pressure lowering activity thus determined are shown in Table 6.
All of the test compounds were employed as the hydrochlorides.

Each structure is given as a SMILES string.

T1 sequence (O35505 whole entry): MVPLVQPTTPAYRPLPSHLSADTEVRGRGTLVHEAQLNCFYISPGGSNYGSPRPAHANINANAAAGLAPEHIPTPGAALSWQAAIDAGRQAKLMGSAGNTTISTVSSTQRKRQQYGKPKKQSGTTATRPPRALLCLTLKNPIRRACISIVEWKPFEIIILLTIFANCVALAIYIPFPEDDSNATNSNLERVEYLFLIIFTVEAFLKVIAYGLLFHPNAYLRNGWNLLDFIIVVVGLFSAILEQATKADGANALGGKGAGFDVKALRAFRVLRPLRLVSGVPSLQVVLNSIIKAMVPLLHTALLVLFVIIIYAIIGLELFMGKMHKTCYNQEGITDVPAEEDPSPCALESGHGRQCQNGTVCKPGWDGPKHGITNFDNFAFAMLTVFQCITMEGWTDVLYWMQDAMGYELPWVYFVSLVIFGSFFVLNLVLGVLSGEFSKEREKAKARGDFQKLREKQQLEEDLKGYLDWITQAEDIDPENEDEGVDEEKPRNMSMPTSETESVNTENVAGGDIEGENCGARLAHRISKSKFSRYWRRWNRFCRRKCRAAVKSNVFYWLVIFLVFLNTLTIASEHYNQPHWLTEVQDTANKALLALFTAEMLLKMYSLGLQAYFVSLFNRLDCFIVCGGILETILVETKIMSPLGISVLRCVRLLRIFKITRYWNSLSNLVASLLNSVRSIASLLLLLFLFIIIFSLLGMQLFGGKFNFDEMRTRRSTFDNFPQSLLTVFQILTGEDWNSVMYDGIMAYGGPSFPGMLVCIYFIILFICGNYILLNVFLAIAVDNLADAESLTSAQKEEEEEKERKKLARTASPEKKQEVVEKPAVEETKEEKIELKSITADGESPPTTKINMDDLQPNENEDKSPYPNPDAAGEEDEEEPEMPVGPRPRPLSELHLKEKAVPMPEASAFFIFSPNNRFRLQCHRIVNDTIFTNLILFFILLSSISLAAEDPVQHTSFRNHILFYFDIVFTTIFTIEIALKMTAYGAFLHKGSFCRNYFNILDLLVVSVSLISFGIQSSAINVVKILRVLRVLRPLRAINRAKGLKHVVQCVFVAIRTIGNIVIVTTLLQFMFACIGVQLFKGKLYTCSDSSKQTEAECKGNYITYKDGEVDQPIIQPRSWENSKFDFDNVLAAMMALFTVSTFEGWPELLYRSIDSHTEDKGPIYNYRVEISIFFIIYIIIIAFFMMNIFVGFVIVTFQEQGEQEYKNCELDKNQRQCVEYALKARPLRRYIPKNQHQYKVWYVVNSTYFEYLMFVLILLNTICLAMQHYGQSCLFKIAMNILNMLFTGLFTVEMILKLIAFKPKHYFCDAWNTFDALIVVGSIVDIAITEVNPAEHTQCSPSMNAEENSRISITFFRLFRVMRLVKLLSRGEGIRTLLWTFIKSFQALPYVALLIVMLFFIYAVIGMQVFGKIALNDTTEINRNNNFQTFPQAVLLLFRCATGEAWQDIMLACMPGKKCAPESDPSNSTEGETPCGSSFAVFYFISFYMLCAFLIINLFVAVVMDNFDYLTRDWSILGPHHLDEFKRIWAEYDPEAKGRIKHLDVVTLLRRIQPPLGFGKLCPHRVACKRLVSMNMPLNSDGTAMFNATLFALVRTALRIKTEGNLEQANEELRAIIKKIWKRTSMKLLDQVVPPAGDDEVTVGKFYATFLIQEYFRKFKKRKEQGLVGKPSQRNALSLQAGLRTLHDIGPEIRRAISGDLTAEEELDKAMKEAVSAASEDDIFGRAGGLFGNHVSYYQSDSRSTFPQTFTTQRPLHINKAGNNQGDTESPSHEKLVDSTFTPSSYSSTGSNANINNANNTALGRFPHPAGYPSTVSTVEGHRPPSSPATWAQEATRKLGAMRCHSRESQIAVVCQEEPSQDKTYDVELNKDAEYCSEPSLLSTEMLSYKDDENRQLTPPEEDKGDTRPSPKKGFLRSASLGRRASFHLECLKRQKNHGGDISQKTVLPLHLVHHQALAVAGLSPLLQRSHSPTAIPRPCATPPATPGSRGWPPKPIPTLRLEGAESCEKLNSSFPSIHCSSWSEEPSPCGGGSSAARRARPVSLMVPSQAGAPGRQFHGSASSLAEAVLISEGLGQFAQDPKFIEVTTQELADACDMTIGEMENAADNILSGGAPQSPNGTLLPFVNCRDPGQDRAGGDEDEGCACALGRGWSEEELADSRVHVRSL

Consider `COc1ccc([C@@H]2Sc3cc(Cc4cccs4)ccc3N(CCN(C)C)C(=O)[C@@H]2OC(C)=O)cc1` [Example 20, (2S, 3S)-3-Acetoxy-5-(2-dimethylaminoethyl)-2,3-dihydro-2-(4-Methoxyphenyl)-8-(2-thienylmethyl)-1,5-benzothiazepin-4(5H)-one], for which, at calcium channel, the inhibition at 0.01 µg/mL was 57%. Also, in assay [1], the “Half-time of hypotension action” value came to 8.5 h and the change in vivo at 10 mg/kg was -24%.

For the compound `COc1ccc([C@@H]2Sc3cc(Oc4ccc(F)cc4)ccc3N(CCN(C)C)C(=O)[C@@H]2OC(C)=O)cc1F` [Example 32, (2S, 3S)-3-Acetoxy-5-(2-dimethylaminoethyl)-2-(3-fluoro-4-methoxyphenyl)-8-(4-fluorophenoxy)-2,3-dihydro-1,5-benzothiazepin-4(5H)-one], the inhibition at 0.01 µg/mL on calcium channel stood at 100%. Besides, in assay [1], the “Half-time of hypotension action” value came to 13.8 h and the change in vivo at 10 mg/kg is -41%.

`CCN(CC)CCN1C(=O)[C@H](OC(C)=O)[C@H](c2ccc(OC)cc2)Sc2cc(Oc3ccccc3)ccc21` [Example 36, (2S, 3S)-3-Acetoxy-5-(2-diethylaminoethyl)-2,3-dihydro-2-(4-methoxyphenyl)-8-phenoxy-1,5-benzothiazepin-4(5H)-one]: on calcium channel, the inhibition at 0.01 µg/mL amounted to 80%. In assay [1], the “Half-time of hypotension action” value was determined as 8.2 h and the change in vivo at 10 mg/kg was -29%.

In the case of `COc1ccc([C@@H]2Sc3cc(Cc4ccc(F)cc4)ccc3N(CCN(C)C)C(=O)[C@@H]2OC(C)=O)cc1` [Example 38, (2S, 3S)-3-Acetoxy-5-(2-dimethylaminoethyl)-8-(4-fluoro-benzyl)-2,3-dihydro-2-(4-methoxyphenyl)-1,5-benzothiazepin-4(5H)-one], the inhibition at 0.01 µg/mL on calcium channel came to 69%. Moreover, in assay [1], the “Half-time of hypotension action” value stood at 11.8 h and the change in vivo at 10 mg/kg was -32%.

What is called inhibition is how much of the control response was suppressed.

Values taken from patent US5002942A, “1,5-benzothiazepine derivatives, their preparation and their use in the treatment of cardiovascular disorders” (Sankyo Company, Limited, priority 1988, dated 1991).
